Source: article PMC8779952, “The First Dimeric Derivatives of the Glycopeptide Antibiotic Teicoplanin” (Pharmaceuticals, 2022)
Values after ≈ are worked out from the molar mass of the structure shown. Like-named read-outs stand apart in the source and are kept apart here.

What was measured:
Format in all cases: cell-based
[1] = tested on: Staphylococcus aureus MSSA ATCC 29213
Protocol: (§1) The antibacterial evaluations were carried out as described in our previous publication. TLC was performed on Kieselgel 60 F254 (Merck) with detection either by immersion in ammonium molybdate–sulfuric acid solution followed by heating or by using Pauly’s reagent for detection. Flash column chromatography was performed using Silica gel 60 (Merck 0.040–0.063 mm).

[2] = tested on: Staphylococcus aureus MRSA ATCC 33591
Protocol: as §1

[3] = tested on: Enterococcus faecalis 15376 VanA; conditions: Enterococcus faecalis 15376 VanA (vanA gene positive, teicoplanin-resistant)
Protocol: as §1

[4] = tested on: Staphylococcus epidermidis ATCC 35984 biofilm
Protocol: as §1

[5] = tested on: Staphylococcus epidermidis mecA
Protocol: as §1

[6] = tested on: Enterococcus faecalis ATCC 29212
Protocol: as §1

[7] = tested on: Enterococcus faecalis ATCC 51299 VanB
Protocol: as §1

[8] = tested on: Bacillus subtilis ATCC 6633
Protocol: as §1

[9] = Enterococcus faecalis ATCC 51299 VanB (vanB gene positive)

Compound | MIC ([1]; ATCC 29213) [µg/mL] | MIC ([2]; ATCC 33591) [µg/mL] | MIC [3] [µg/mL] | MIC ([4]; ATCC 35984) [µg/mL] | MIC ([5]; mecA) [µg/mL] | MIC ([6]; ATCC 29212) [µg/mL] | MIC [7, 9] [µg/mL] | MIC ([8]; ATCC 6633) [µg/mL] | MIC ([7]; ATCC 51299) [µg/mL] | MIC ([1]; Staphylococcus aureus MSSA ATCC 29213 (methicillin-sensitive)) [µg/mL] | MIC ([2]; Staphylococcus aureus MRSA ATCC 33591 (methicillin-resistant)) [µg/mL] | MIC ([4]; Staphylococcus epidermidis ATCC 35984 biofilm) [µg/mL] | MIC ([5]; Staphylococcus epidermidis mecA (mecA gene expression)) [µg/mL] | MIC ([6]; Enterococcus faecalis ATCC 29212) [µg/mL] | MIC ([8]; Bacillus subtilis ATCC 6633, minimum inhibitory concentration) [µg/mL]
CC(=O)N[C@H]1[C@H](O[C@@H]2c3ccc(c(Cl)c3)Oc3cc4cc(c3O)Oc3ccc(cc3Cl)C[C@H]3NC(=O)[C@H](N)c5ccc(O)c(c5)Oc5cc(O)cc(c5)[C@H](NC3=O)C(=O)N[C@H]4C(=O)N[C@H]3C(=O)N[C@@H]2C(=O)N[C@H](C(=O)O)c2cc(O)cc(O[C@H]4O[C@H](CO)[C@@H](O)[C@H](O)[C@@H]4O)c2-c2cc3ccc2O)O[C@H](CO)[C@@H](O)[C@@H]1O [Compound 2] | 4 (≈ 2.56 µM) | 2 (≈ 1.28 µM) | 4 (≈ 2.56 µM) | 2 (≈ 1.28 µM) | 4 (≈ 2.56 µM) | 8 (≈ 5.11 µM) | 8 (≈ 5.11 µM) | 2 (≈ 1.28 µM) |  |  |  |  |  |  | 
CC(=O)N[C@H]1[C@H](O[C@@H]2c3ccc(c(Cl)c3)Oc3cc4cc(c3O)Oc3ccc(cc3Cl)C[C@H]3NC(=O)[C@H](N)c5ccc(O)c(c5)Oc5cc(O)cc(c5)[C@H](NC3=O)C(=O)N[C@H]4C(=O)N[C@H]3C(=O)N[C@@H]2C(=O)N[C@H](C(=O)O)c2cc(O)cc(O)c2-c2cc3ccc2O)O[C@H](CO)[C@@H](O)[C@@H]1O [Compound 3, teicoplanin pseudoaglycone] | 2 (≈ 1.43 µM) | 1 (≈ 0.713 µM) | 256 (≈ 183 µM) | 2 (≈ 1.43 µM) | 1 (≈ 0.713 µM) | 4 (≈ 2.85 µM) |  | 2 (≈ 1.43 µM) | 2 (≈ 1.43 µM) |  |  |  |  |  | 
Teicoplanin [Teico (1)] |  |  | 256 |  |  |  | 4 |  |  | 0.5 | 0.5 | 2 | 16 | 2 | 0.5
